Measurements from patent publication US8362031B2, “Lonidamine analogues and treatment of polycystic kidney disease” (University of Kansas, priority 2004, dated 2013).
“Also recorded” adds a separate entry of the source.

Columns and labels:
Male Long Evans rats = experiment: In vivo antispermatogenic testing in Long Evans rats; settings: for Mortality (25 mg/kg) / Response 25 mg/kg: 25 mg/kg single i.p. injection; for Response 25 mg/kg / Response 200 mg/kg: animals responding out of animals surviving, five days following injection; for Mortality (200 mg/kg) / Response 200 mg/kg: 200 mg/kg single i.p. injection
[1] = tested on: Salmonella Typhimurium TA 100; experiment: Ames test for mutagenicity (plate assay, colony count); settings: 48 hours at 37° C.; for Ames test (+)S9 0.1 mg/pl. / Ames test (+)S9 1 mg/pl. / Ames test (+)S9 10 mg/pl.: (+)S9 mix; for Ames test (−)S9 0.1 mg/pl. / Ames test (−)S9 1 mg/pl. / Ames test (−)S9 10 mg/pl.: (−)S9 mix
rats = experiment: Toxicology: organs sectioned and examined after dosing; type: in vivo; settings: for Toxicology: liver, lung, pancreas, spleen, heart and kidney (histology): two animals examined, findings per animal; for Kidney (histology) / Liver and Pancreas (histology): single injection, sacrificed five days after injection, per animal
Experimental: In at least two of the animals in each group, the pancreas, right kidney and part of the liver, heart, spleen, and lung were removed and evaluated for toxic effects.
The toxicology of animals receiving some of the compounds of the present invention IP and/or oral was examined. At the time of sacrifice samples of liver, pancreas, heart, lung, spleen and kidney were removed, visually inspected, and immersion fixed in Bouin's solution for a minimum of 48 hours. All organs were then sectioned and examined for evidence of necrosis, inflammation, hemorrhage, and possible tumors. The major veins in each tissue were also examined for distention, especially in the liver and pancreas, and any other abnormalities are compared to known histopathological states. In addition to the above, the heart was examined for evidence of fibrosis in the muscular walls, and to compare the thickness of the ventricular walls. The pancreas was examined mainly for calcium deposits, while the lung was checked for signs of any exudates or hemorrhage, especially in the alveolar spaces. Finally, the kidney was examined mainly for microscopic hemorrhages, tubular necrosis or alterations in the glomeruli in the cortex.
In this example, the effects of RC-MC-30 were compared with those of lonidamine in sexually mature rats. As discussed above, each of the rats (8 total) received a single injection and were sacrificed five days after injection and examined.

COC(=O)c1nn(Cc2ccc(Cl)cc2Cl)c2cc(F)ccc12 [JWS-1-158, 1-(2,4-dichlorobenzyl)-6-fluoro-1H-indazole-3-carboxylic acid methyl ester]
Mortality (25 mg/kg) (Male Long Evans rats): 0/5
Response 25 mg/kg (Male Long Evans rats): 4/5
Mortality (200 mg/kg) (Male Long Evans rats): 0/5
Response 200 mg/kg (Male Long Evans rats): 5/5
Ames test (+)S9 0.1 mg/pl. [1]: Pass
Ames test (+)S9 1 mg/pl. [1]: Pass
Ames test (+)S9 10 mg/pl. [1]: Pass
Ames test (−)S9 0.1 mg/pl. [1]: Pass
Ames test (−)S9 1 mg/pl. [1]: Pass
Ames test (−)S9 10 mg/pl. [1]: Pass
Toxicology: liver, lung, pancreas, spleen, heart and kidney (histology) (rats; 25 mg/kg, listed as JSW-1-158): liver, lung, pancreas, spleen, heart and kidney all appeared within normal limits; also recorded: The lung had thickening of the alveolar and bronchiole walls, and scattered areas of moderate sized hemorrhaging covering several adjacent alveoli
Toxicology: liver, lung, pancreas, spleen, heart and kidney (histology) (rats; 200 mg/kg, listed as JSW-1-158): The pancreas had areas of lymphocytic infiltrates extending from the periphery inwards between the acinar cells; also recorded: liver, lung, pancreas, spleen, heart and kidney all appeared within normal limits

NNC(=O)c1nn(Cc2ccc(Cl)cc2Cl)c2cc(F)ccc12 [JWS-1-160, 1-(2,4-dichlorobenzyl)-6-fluoro-1H-indazole-3-carboxylic acid hydrazide]
Mortality (25 mg/kg) (Male Long Evans rats): 0/5
Response 25 mg/kg (Male Long Evans rats): 3/5
Mortality (200 mg/kg) (Male Long Evans rats): 2/5
Response 200 mg/kg (Male Long Evans rats): 3/3
Ames test (+)S9 0.1 mg/pl. [1]: Pass
Ames test (+)S9 1 mg/pl. [1]: Pass
Ames test (+)S9 10 mg/pl. [1]: Pass
Ames test (−)S9 0.1 mg/pl. [1]: Pass
Ames test (−)S9 1 mg/pl. [1]: Pass
Ames test (−)S9 10 mg/pl. [1]: Pass
Toxicology: liver, lung, pancreas, spleen, heart and kidney (histology) (rats; 25 mg/kg, listed as JSW-1-160): The kidney does have scattered, small patches of tubular necrosis in the inner cortex; also recorded: The liver had several distended veins, but no other abnormalities were noted; also recorded: liver, lung, pancreas, spleen, heart and kidney all appeared within normal limits
Toxicology: liver, lung, pancreas, spleen, heart and kidney (histology) (rats; 200 mg/kg, listed as JSW-1-160): The kidney did have scattered, small patches of tubular necrosis in the inner cortex; also recorded: liver, lung, pancreas, spleen, heart and kidney all appeared within normal limits

O=C(O)/C=C/c1nn(Cc2ccc(Cl)cc2Cl)c2cc(F)ccc12 [JWS-1-170, 3-[1-(2,4-dichlorobenzyl)-6-fluoro-1H-indazol-3-yl]-acrylic acid]
Mortality (25 mg/kg) (Male Long Evans rats): 0/5
Response 25 mg/kg (Male Long Evans rats): 3/5
Mortality (200 mg/kg) (Male Long Evans rats): 0/5
Response 200 mg/kg (Male Long Evans rats): 3/3
Ames test (+)S9 0.1 mg/pl. [1]: Pass
Ames test (+)S9 1 mg/pl. [1]: Pass
Ames test (+)S9 10 mg/pl. [1]: Pass
Ames test (−)S9 0.1 mg/pl. [1]: Pass
Ames test (−)S9 1 mg/pl. [1]: Pass
Ames test (−)S9 10 mg/pl. [1]: Pass
Toxicology: liver, lung, pancreas, spleen, heart and kidney (histology) (rats; 25 mg/kg): liver, lung, pancreas, spleen, heart and kidney that appeared within normal limits
Toxicology: liver, lung, pancreas, spleen, heart and kidney (histology) (rats; 200 mg/kg): liver, lung, pancreas, spleen, heart and kidney all appeared within normal limits; also recorded: The liver did have moderate patches (5-10 cells in diameter) of necrosis mainly in the periportal areas

COC(=O)c1nn(Cc2ccc(Cl)cc2Cl)c2ccccc12 [RC-MC-30, 1-(2,4-dichlorobenzyl)indazole-3-carboxylic acid methyl ester]
Mortality (25 mg/kg) (Male Long Evans rats): 0/5
Response 25 mg/kg (Male Long Evans rats): 3/5
Mortality (200 mg/kg) (Male Long Evans rats): 0/5
Response 200 mg/kg (Male Long Evans rats): 4/5
Ames test (+)S9 0.1 mg/pl. [1]: Pass
Ames test (+)S9 1 mg/pl. [1]: Pass
Ames test (+)S9 10 mg/pl. [1]: Pass
Ames test (−)S9 0.1 mg/pl. [1]: Pass
Ames test (−)S9 1 mg/pl. [1]: Pass
Ames test (−)S9 10 mg/pl. [1]: Pass
Kidney (histology) (rats; Dosage 25 mg/kg): Small areas with blood
Liver and Pancreas (histology) (rats; Dosage 25 mg/kg): Non-remarkable,
Kidney (histology) (rats; Dosage 200 mg/kg): Patchy hemorrhagic areas,
Liver and Pancreas (histology) (rats; Dosage 200 mg/kg): Non-remarkable,

O=C(O)c1nn(Cc2ccc(Cl)cc2Cl)c2cc(C(F)(F)F)ccc12 [RC-MC-100, 1-(2,4-dichlorobenzyl)-6-trifluoromethyl-1H-indazole-3-carboxylic acid]
Mortality (25 mg/kg) (Male Long Evans rats): 0/5
Response 25 mg/kg (Male Long Evans rats): 0/5
Mortality (200 mg/kg) (Male Long Evans rats): 0/5
Response 200 mg/kg (Male Long Evans rats): 0/5
Ames test (+)S9 0.1 mg/pl. [1]: Pass
Ames test (+)S9 1 mg/pl. [1]: Pass
Ames test (+)S9 10 mg/pl. [1]: Pass
Ames test (−)S9 0.1 mg/pl. [1]: Pass
Ames test (−)S9 1 mg/pl. [1]: Pass
Ames test (−)S9 10 mg/pl. [1]: Pass
Clinical signs after IP injection (rats; 200 mg/kg IP, five animals): all 5 animals tested became lethargic and ceased moving; also recorded: minor tremors in both hindlimbs which lasted approximately 30 minutes; also recorded: Two of the animals also had wet rales
Deaths after IP injection (rats; 200 mg/kg IP, five animals): Three of the animals died 2-3 hours later
Recovery after IP injection (rats; 200 mg/kg IP, five animals): the other two recovered and did not show any other symptoms

CCOC(=O)c1nn(Cc2ccc(Cl)cc2Cl)c2ccccc12 [RC-MC-156, 1-[(2,4-dichlorobenzyl)-1H-indazole]-3-carboxylic acid ethyl ester]
Mortality (25 mg/kg) (Male Long Evans rats): 0/5
Response 25 mg/kg (Male Long Evans rats): 2/5
Mortality (200 mg/kg) (Male Long Evans rats): 0/5
Response 200 mg/kg (Male Long Evans rats): 4/5
Ames test (+)S9 0.1 mg/pl. [1]: Pass
Ames test (+)S9 1 mg/pl. [1]: Pass
Ames test (+)S9 10 mg/pl. [1]: Pass
Ames test (−)S9 0.1 mg/pl. [1]: Pass
Ames test (−)S9 1 mg/pl. [1]: Pass
Ames test (−)S9 10 mg/pl. [1]: Pass
Toxicology: liver, lung, pancreas, spleen, heart and kidney (histology) (rats; 25 mg/kg): The lung did have scattered small, hemorrhagic patches, mainly in the alveolar and terminal bronchiole regions; also recorded: The lung showed widespread hemorrhagic regions throughout the alveoli and terminal bronchioles with small hemosiderin deposits around a few smaller bronchioles
Toxicology: liver, lung, pancreas, spleen, heart and kidney (histology) (rats; 200 mg/kg): liver, lung, pancreas, spleen, heart and kidney all appeared within normal limits; also recorded: The lung had small, scattered areas of hemorrhage mainly around the alveoli and small bronchioles; also recorded: The liver had small (4-5 cells in diameter) patches of necrosis scattered throughout the parenchyma

CCCOC(=O)c1nn(Cc2ccc(Cl)cc2Cl)c2ccccc12 [RC-MC-158, 1-[(2,4-dichlorobenzyl)-1H-indazole]-3-carboxylic acid propyl ester]
Mortality (25 mg/kg) (Male Long Evans rats): 0/5
Response 25 mg/kg (Male Long Evans rats): 2/5
Mortality (200 mg/kg) (Male Long Evans rats): 0/5
Response 200 mg/kg (Male Long Evans rats): 5/5
Ames test (+)S9 0.1 mg/pl. [1]: Mar-
Ames test (+)S9 1 mg/pl. [1]: Pass
Ames test (+)S9 10 mg/pl. [1]: Pass
Ames test (−)S9 0.1 mg/pl. [1]: Pass
Ames test (−)S9 1 mg/pl. [1]: Pass
Ames test (−)S9 10 mg/pl. [1]: Pass
Toxicology: liver, lung, pancreas, spleen, heart and kidney (histology) (rats; 25 mg/kg): liver, lung, pancreas, spleen, heart and kidney all appeared within normal limits; also recorded: The lung did have small scattered hemorrhagic areas, mainly around the alveoli and terminal bronchioles
Toxicology: liver, lung, pancreas, spleen, heart and kidney (histology) (rats; 200 mg/kg): The lung had multiple, large hemorrhagic areas, mainly in the alveolar regions with some hemosiderin deposits; also recorded: The lung contained multiple large hemorrhagic areas, mainly in the alveoli; also recorded: The liver contained small, scattered necrotic areas, generally around the portal veins
